In PMC11992225, “Antibacterial compounds against non-growing and intracellular bacteria” (npj Antimicrobials and Resistance, 2025):
≈ marks a conversion by molar mass, not a printed value. Read-outs that look alike come from different tables or passages of the source.

How the values were obtained:
S. aureus DSM2569 = test: MIC, standard microdilution assay, growing S. aureus; type: cell-based, Staphylococcus aureus
In short: (§1)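 MICs come from microdilution in CA-MHB/40 mM HEPES pH 7.4 for the UPEC, Pseudomonas and Staphylococcus strains, and in TSB for Shigella. UPEC also tested in LPM/30 mM MES pH 5.5.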

S. flexneri 5a M90T = test: MIC in tryptic soy broth, S. flexneri; type: cell-based, Shigella flexneri; conditions: for MIC: Shigella flexneri, 5AM90T, read-out: MIC (μM) TSB
In short: as §1

[1] = test system: intracellular S. flexneri 5a M90T in TC7 cells; test: microbe, parasite or virus in culture; type: cell-based, Shigella flexneri; conditions: for IC50: Shigella flexneri, TC7, 14 h
non-growing UPEC CFT073 = test: Dilution-regrowth assay (screen, hit validation, dose-response) on stationary-phase UPEC; type: cell-based, Escherichia coli; conditions: for Regrowth: OD600 after dilution into drug-free medium (mean): OD600 at 6h or 8h; for OD600 at 6hr, Mean: after dilution into drug-free medium
In short: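 Regrowth (OD600 after 6 h, 37 °C) of diluted non-growing CFT073, following 24 h compound treatment of 24 h stationary cultures, defines activity relative to untreated control. Screen at 20 µM, validation at 20, 10, 5 µM (duplicates), dose–response in three biological replicates fitted by five-parameter logistic.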

E. coli CFT073 (UPEC) = test: MIC, standard microdilution assay, growing UPEC; type: cell-based, Escherichia coli; conditions: for MIC (μM) CA-MHB +PAβN: CA-MHB with 10 μg/ml efflux pump inhibitor PaβN
In short: as §1

P. aeruginosa DSM1117 = test: MIC, standard microdilution assay, growing P. aeruginosa; type: cell-based, Pseudomonas aeruginosa
In short: as §1

[2] = TC7 cells infected with GFP-expressing S. flexneri, 14 h treatment

CO[C@H]1/C=C/O[C@@]2(C)Oc3c(C)c(O)c4c(O)c(c(/C=N/N=C/N5CCCCC5)c(O)c4c3C2=O)NC(=O)/C(C)=C\C=C\[C@H](C)[C@H](O)[C@@H](C)[C@@H](O)[C@@H](C)[C@H](OC(C)=O)[C@@H]1C [FCE-22250]
MIC (S. aureus DSM2569; S. aureus, CA-MHB pH 7.4, read-out: MIC (μM) CA-MHB): 0.0125 µM (≈ 0.0104 µg/mL)
MIC (μM) TSB (S. flexneri 5a M90T; S. flexneri, extracellular bacteria in TSB): 16 µM (≈ 13.4 µg/mL)
Fluorescence intensity (RFU), Mean, 0.0625 x MIC ([1]; TC7 cells infected with GFP-expressing S. flexneri, 14 h treatment, 0.0625 x MIC): 8508.25 RFU
Fluorescence intensity (RFU), Mean, 0.125 x MIC ([1]; TC7 cells infected with GFP-expressing S. flexneri, 14 h treatment, 0.125 x MIC): 9069.58 RFU
Fluorescence intensity (RFU), Mean, 0.25 x MIC [1, 2]: 2896.5 RFU
Fluorescence intensity (RFU), Mean, 0.5 x MIC [1, 2]: 1857.94 RFU
Fluorescence intensity (RFU), Mean, 2 x MIC [1, 2]: 1320.58 RFU
Fluorescence intensity (RFU), Mean, 4 x MIC [1, 2]: 1217.94 RFU
Fluorescence intensity (RFU), Mean, 8 x MIC [1, 2]: 1111.33 RFU
Fluorescence intensity (RFU), Mean, 16 x MIC ([1]; TC7 cells infected with GFP-expressing S. flexneri, 14 h treatment, 16 x MIC): 979.361 RFU
Fluorescence intensity (RFU), Mean, MIC [1, 2]: 1487.86 RFU
Regrowth: OD600 after dilution into drug-free medium (mean) (non-growing UPEC CFT073; E. coli in 1:4 CA-MHB (pH 7.4), concentration 0.25): 0.613
Regrowth: OD600 after dilution into drug-free medium (mean) (non-growing UPEC CFT073; E. coli in 1:4 CA-MHB (pH 7.4), concentration 0.5): 0.587
Regrowth: OD600 after dilution into drug-free medium (mean) (non-growing UPEC CFT073; E. coli in 1:4 CA-MHB (pH 7.4), concentration 1): 0.569
Regrowth: OD600 after dilution into drug-free medium (mean) (non-growing UPEC CFT073; E. coli in 1:4 CA-MHB (pH 7.4), concentration 2.5): 0.549
Regrowth: OD600 after dilution into drug-free medium (mean) (non-growing UPEC CFT073; E. coli in 1:4 CA-MHB (pH 7.4), concentration 5): 0.529
Regrowth: OD600 after dilution into drug-free medium (mean) (non-growing UPEC CFT073; E. coli in 1:4 CA-MHB (pH 7.4), concentration 10): 0.515
Regrowth: OD600 after dilution into drug-free medium (mean) (non-growing UPEC CFT073; E. coli in 1:4 CA-MHB (pH 7.4), concentration 30): 0.347
Regrowth: OD600 after dilution into drug-free medium (mean) (non-growing UPEC CFT073; E. coli in LPM (pH 5.5), concentration 0.25): 0.566
Regrowth: OD600 after dilution into drug-free medium (mean) (non-growing UPEC CFT073; E. coli in LPM (pH 5.5), concentration 0.5): 0.535
Regrowth: OD600 after dilution into drug-free medium (mean) (non-growing UPEC CFT073; E. coli in LPM (pH 5.5), concentration 1): 0.500
Regrowth: OD600 after dilution into drug-free medium (mean) (non-growing UPEC CFT073; E. coli in LPM (pH 5.5), concentration 2.5): 0.418
Regrowth: OD600 after dilution into drug-free medium (mean) (non-growing UPEC CFT073; E. coli in LPM (pH 5.5), concentration 5): 0.299
Regrowth: OD600 after dilution into drug-free medium (mean) (non-growing UPEC CFT073; E. coli in LPM (pH 5.5), concentration 10): 0.206
Regrowth: OD600 after dilution into drug-free medium (mean) (non-growing UPEC CFT073; E. coli in LPM (pH 5.5), concentration 30): 0.134
EC50 (non-growing UPEC CFT073; E. coli, LPM pH 5.5, regrowth delay of non-growing bacteria, 24 h treatment, OD600 6 h after 2500-fold dilution, read-out: EC50): 3.97 µM
EC50 (non-growing UPEC CFT073; LPM pH 5.5 (red curve), medium assigned by comparison with Dataset 1, read-out: EC50 (regrowth inhibition curve, Fig. S4)): 3.45 µM
MIC (E. coli CFT073 (UPEC); E. coli, LPM pH 5.5, read-out: MIC): 2 µM (≈ 1.67 µg/mL)
MIC (E. coli CFT073 (UPEC); E. coli, pH 7.4, 1:4 diluted CA-MHB, read-out: MIC (μM) 1:4 CA-MHB): 10 µM (≈ 8.35 µg/mL)
MIC (μM) CA-MHB +PAβN (E. coli CFT073 (UPEC); E. coli, pH 7.4): 4 µM (≈ 3.34 µg/mL)
MIC (E. coli CFT073 (UPEC); E. coli, pH 7.4, CA-MHB, read-out: MIC (μM) CA-MHB): 8 µM (≈ 6.68 µg/mL)
MIC (P. aeruginosa DSM1117; P. aeruginosa, 1:4 diluted CA-MHB pH 7.4, read-out: MIC (μM) 1:4 CA-MHB): 10 µM (≈ 8.35 µg/mL)
MIC (P. aeruginosa DSM1117; P. aeruginosa, CA-MHB pH 7.4, read-out: MIC (μM) CA-MHB): >160 µM

Cn1c(COP(=O)(NCCBr)NCCBr)cnc1[N+](=O)[O-] [Evofosfamide]
MIC (μM) CA-MHB +PAβN (S. aureus DSM2569; S. aureus, CA-MHB with 10 μg/ml PaβN): 80 µM (≈ 35.9 µg/mL)
MIC (S. aureus DSM2569; Staphylococcus aureus, DSM2569, pH 7.4, read-out: MIC (μM) 1:4 CA-MHB): 80 µM (≈ 35.9 µg/mL)
MIC (S. aureus DSM2569; Staphylococcus aureus, DSM2569, pH 7.4, read-out: MIC (μM) CA-MHB): 160 µM (≈ 71.8 µg/mL)
MIC (S. flexneri 5a M90T): 32 µM (≈ 14.4 µg/mL)
MIC:IC50 ratio ([1]; S. flexneri MIC in TSB versus intracellular IC50): below 0.5
IC50 [1]: 102 µM
Fluorescence intensity (RFU), Mean, 0.25 x MIC [1, 2]: 9046.58 RFU
Fluorescence intensity (RFU), Mean, 0.5 x MIC [1, 2]: 8823.33 RFU
Fluorescence intensity (RFU), Mean, 2 x MIC [1, 2]: 7151.78 RFU
Fluorescence intensity (RFU), Mean, 4 x MIC [1, 2]: 5305.28 RFU
Fluorescence intensity (RFU), Mean, 8 x MIC [1, 2]: 3462.11 RFU
Fluorescence intensity (RFU), Mean, MIC [1, 2]: 8378.86 RFU
OD600 at 6hr, Mean (non-growing UPEC CFT073; E. coli in 1:4 CA-MHB (pH 7.4), 0.25 μM): 0.603
OD600 at 6hr, Mean (non-growing UPEC CFT073; E. coli in 1:4 CA-MHB (pH 7.4), 0.5 μM): 0.596
OD600 at 6hr, Mean (non-growing UPEC CFT073; E. coli in 1:4 CA-MHB (pH 7.4), 1 μM): 0.573
OD600 at 6hr, Mean (non-growing UPEC CFT073; E. coli in 1:4 CA-MHB (pH 7.4), 2.5 μM): 0.563
OD600 at 6hr, Mean (non-growing UPEC CFT073; E. coli in 1:4 CA-MHB (pH 7.4), 5 μM): 0.534
OD600 at 6hr, Mean (non-growing UPEC CFT073; E. coli in 1:4 CA-MHB (pH 7.4), 10 μM): 0.521
OD600 at 6hr, Mean (non-growing UPEC CFT073; E. coli in 1:4 CA-MHB (pH 7.4), 30 μM): 0.480
OD600 at 6hr, Mean (non-growing UPEC CFT073; E. coli in LPM (pH 5.5), 0.25 μM): 0.553
OD600 at 6hr, Mean (non-growing UPEC CFT073; E. coli in LPM (pH 5.5), 0.5 μM): 0.543
OD600 at 6hr, Mean (non-growing UPEC CFT073; E. coli in LPM (pH 5.5), 1 μM): 0.392
OD600 at 6hr, Mean (non-growing UPEC CFT073; E. coli in LPM (pH 5.5), 2.5 μM): 0.282
OD600 at 6hr, Mean (non-growing UPEC CFT073; E. coli in LPM (pH 5.5), 5 μM): 0.193
OD600 at 6hr, Mean (non-growing UPEC CFT073; E. coli in LPM (pH 5.5), 10 μM): 0.124
OD600 at 6hr, Mean (non-growing UPEC CFT073; E. coli in LPM (pH 5.5), 30 μM): 0.114
EC50 (non-growing UPEC CFT073; Escherichia coli, pH 5.5): 1.54 µM
EC50 (non-growing UPEC CFT073; Escherichia coli, pH 5.5, read-out: EC50 (regrowth inhibition curve, Fig. S4)): 1.54 µM
EC50 (non-growing UPEC CFT073; Escherichia coli, pH 7.4): 11.6 µM
activity against non-growing UPEC in LPM (pH 5.5) compared to 1:4 CA-MHB (pH 7.4) (non-growing UPEC CFT073; regrowth delay and killing, Figs. 2 and 3): potentiated by the low pH
MIC (μM) CA-MHB +PAβN (E. coli CFT073 (UPEC); E. coli, pH 7.4): >160 µM
MIC (E. coli CFT073 (UPEC); Escherichia coli, pH 5.5): 160 µM (≈ 71.8 µg/mL)
MIC (E. coli CFT073 (UPEC); Escherichia coli, pH 7.4, read-out: MIC (μM) 1:4 CA-MHB): > 160 µM
MIC (E. coli CFT073 (UPEC); Escherichia coli, pH 7.4, read-out: MIC (μM) CA-MHB): > 160 µM
MIC (P. aeruginosa DSM1117; Pseudomonas aeruginosa, DSM1117, pH 7.4, read-out: MIC (μM) CA-MHB): > 160 µM

CC[C@H]1OC(=O)C[C@@H](O)[C@H](C)[C@@H](O[C@@H]2O[C@H](C)C[C@H](N(C)C)[C@H]2O)[C@@H](CC=O)C[C@@H](C)C(=O)/C=C/[C@]2(C)O[C@H]2[C@@H]1C [Rosamicin]
MIC (S. aureus DSM2569; Staphylococcus aureus, DSM2569, S. aureus, CA-MHB pH 7.4, read-out: MIC (μM) CA-MHB): 2 µM (≈ 1.16 µg/mL)
MIC (S. flexneri 5a M90T): 16 µM (≈ 9.31 µg/mL)
IC50 [1]: 23.7 µM
Fluorescence intensity (RFU), Mean, 0.25 x MIC [1, 2]: 9383.2 RFU
Fluorescence intensity (RFU), Mean, 0.5 x MIC [1, 2]: 8207.86 RFU
Fluorescence intensity (RFU), Mean, 2 x MIC [1, 2]: 3601.92 RFU
Fluorescence intensity (RFU), Mean, 4 x MIC [1, 2]: 1830.75 RFU
Fluorescence intensity (RFU), Mean, MIC [1, 2]: 6316.33 RFU
EC50 (non-growing UPEC CFT073; Escherichia coli, E. coli, pH 7.4, regrowth delay of non-growing bacteria, 1:4 CA-MHB, 24 h treatment, OD600 6 h after 2500-fold dilution, read-out: EC50): 0.858 µM
MIC (E. coli CFT073 (UPEC); Escherichia coli, E. coli, pH 7.4, 1:4 diluted CA-MHB, read-out: MIC (μM) 1:4 CA-MHB): 6.25 µM (≈ 3.64 µg/mL)
MIC (E. coli CFT073 (UPEC); Escherichia coli, E. coli, pH 7.4, CA-MHB, read-out: MIC (μM) CA-MHB): 25 µM (≈ 14.5 µg/mL)
MIC (P. aeruginosa DSM1117; Pseudomonas aeruginosa, DSM1117, P. aeruginosa, 1:4 diluted CA-MHB pH 7.4, read-out: MIC (μM) 1:4 CA-MHB): 100 µM (≈ 58.2 µg/mL)
MIC (P. aeruginosa DSM1117; Pseudomonas aeruginosa, DSM1117, P. aeruginosa, CA-MHB pH 7.4, read-out: MIC (μM) CA-MHB): > 100 µM
